Tests used:
[1] = biological target: T1, Cdk2/cyclin E (Homo sapiens, UniProt P24941); assay: Biochemical kinase assay Cdk2/cyclin E; details: Table 6
T1 construct: made in house; host or cells: Sf9 insect cells
Method in brief: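 Sf9-expressed Cdk/cyclin heterodimers phosphorylate GST-Rb (residues 379–928, 40 μg) with 50 μM ATP plus [γ-33P]ATP, pH 7.5, 10% DMSO, 15 min at 30 °C. Compounds 1 nM–10 μM. 33P captured on glutathione-sepharose and scintillation-counted; activity relative to DMSO control after EDTA-background subtraction.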

[2] = biological target: T2, Cdc2/cyclin B (Homo sapiens, UniProt P06493); assay: Biochemical kinase assay Cdc2/cyclin B; details: Table 6
T2 construct: purchased
Method in brief: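 Radiometric TCA-precipitation assay measuring [γ-32P]ATP incorporation into Histone H1 (20 μg); 50 μM ATP, 10% DMSO, Tris pH 7.5 with MgCl2 and DTT. Compounds at 1 nM to 10 μM; reaction 20 min at 30 °C, stopped with EDTA/ATP. Activity relative to DMSO control after subtracting 50 mM EDTA background.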

[3] = biological target: protein kinase C (mixed isozymes); assay: Protein kinase C TCA precipitation assay; assay type: biochemical, rat; details: Table 5; read-out: PKC IC50
Procedure: Enzymes: Cdc2/cyclin B was obtained from commercial sources. Cdk2/his-cyclin Eshort was expressed in Sf9 cells. Cdk2/cyclin A, cdk4/cyclin D1, and cdk6/cyclin D2 were expressed in Sf9 cells. Protein kinase A (catalytic subunit, from bovine heart) and protein kinase C (mixed isozymes from rat brain) were obtained from commercial sources.
Protein kinase C and protein kinase A were assayed using a TCA precipitation assay with Histone H1 as a substrate. For protein kinase A, the final assay contained 50 mM Tris, 10 mM MgCl2, 1 mM dithiothreitol, pH 7.5, 12 μM adenosine triphosphate, 10% (v/v) dimethylsulfoxide (from compounds), 20 μg Histone H1, 2 μCi [γ-^32P] adenosine triphosphate, 0.2 U protein kinase A in a 100 μL assay. A protein kinase C assay contained 50 mM Tris, 10 mM MgCl2, 1 mM dithiothreitol, 0.8 mM CaCl2, pH 7.5, 5 μM adenosine triphosphate, 10% (v/v) dimethylsulfoxide (from compounds), 20 μg Histone H1, 2 μCi [γ-^32P] adenosine triphosphate, 0.01 U protein kinase C in a 50 μL assay. The assays were started by the addition of enzyme, allowed to react for 10 min at 30° C., and stopped by adding 0.4 volumes of 237 mM disodium ethylenediamine tetraacetate, 105 mM adenosine triphosphate, pH 8.0. […] The filters were washed ten times with 25% (w/v) trichloroacetic acid, and the amount of incorporated [^32P]phosphate was determined by adding 100 μl Microscint and scintillation counting.

T2 sequence (P06493 whole entry, species assumed): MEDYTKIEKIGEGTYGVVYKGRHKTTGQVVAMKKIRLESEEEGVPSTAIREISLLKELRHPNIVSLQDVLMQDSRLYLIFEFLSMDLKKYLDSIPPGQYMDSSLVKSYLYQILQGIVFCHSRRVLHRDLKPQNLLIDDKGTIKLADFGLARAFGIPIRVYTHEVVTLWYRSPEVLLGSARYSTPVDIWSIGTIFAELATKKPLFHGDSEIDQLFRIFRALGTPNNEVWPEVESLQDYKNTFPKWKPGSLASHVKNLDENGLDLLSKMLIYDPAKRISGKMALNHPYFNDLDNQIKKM
T2 sequence (P14635 whole entry partner, species assumed): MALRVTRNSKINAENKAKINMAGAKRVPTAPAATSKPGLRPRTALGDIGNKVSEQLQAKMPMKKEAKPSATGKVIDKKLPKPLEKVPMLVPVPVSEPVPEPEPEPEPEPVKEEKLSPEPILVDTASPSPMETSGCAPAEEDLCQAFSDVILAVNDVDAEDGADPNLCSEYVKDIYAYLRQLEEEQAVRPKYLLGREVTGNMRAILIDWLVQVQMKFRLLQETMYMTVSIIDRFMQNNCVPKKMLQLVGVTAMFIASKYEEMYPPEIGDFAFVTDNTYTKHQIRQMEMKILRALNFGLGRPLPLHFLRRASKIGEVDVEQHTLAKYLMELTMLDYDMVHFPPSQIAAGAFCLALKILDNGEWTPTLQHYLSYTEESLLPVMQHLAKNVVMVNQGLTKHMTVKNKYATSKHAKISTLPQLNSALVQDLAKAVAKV

CC(C)N1CCN(C(=O)COc2ccc(-c3[nH]nc4c3C(=O)c3c(NC(=O)NN5CCOCC5)cccc3-4)cc2)CC1.Cl [Compound A37]
IC50 [1]: < 100 nM | IC50 [2]: < 100 nM

COCCN1CCN(Cc2ccc(-c3[nH]nc4c3C(=O)c3c(NC(=O)NN5CCOCC5)cccc3-4)cc2)CC1.Cl.Cl [Compound B16, N-[3-(4-{[4-(2-methoxyethyl)piperazinyl]methyl}phenyl)-4-oxoindeno[2,3-d]pyrazol-5-yl](morpholin-4-ylamino)carboxamide dihydrochloride]
IC50 [1]: < 10 nM | IC50 [2]: < 10 nM

CC(C)c1nn(-c2c(Cl)cccc2Cl)c2nc(Cc3ccc(O)c(CN4CCN(C(C)C)CC4)c3)[nH]c(=O)c12 [Compound C]
IC50 [3]: > 10000 nM
